# Experiments:
# [1] = system: SJSA-1 osteosarcoma cell line; assay: MTT cell viability assay; type: cell-based; conditions: Homo sapiens, SJSA-1, 72 h, 72 h incubation, average of 2-5 experiments
# Description: The effect of the invented p53-Mdm2 inhibitors on cell viability has been assessed using MTT assay. It is a colorimetric assay that measures conversion of tetrazolium ring of the soluble yellow dye (MTT) into insoluble purple formazan. This process is catalysed solely in mitochondrial dehydrogenases of living cells.
# Cells were seeded on 96-well plates and then treated with successive dilutions of tested compounds. After 72 h incubation, MTT was added to the final concentration 0.5 mg/ml. The cells were further incubated for the next 4 h. Then the solution was drained and the remaining formazan crystals were dissolved in 100 μl DMSO. […] All the MTT experiments were independently repeated 2-5 times. Dose-dependent binding curves and IC50 values were calculated using GraphPad Prism 5.
# [2] = molecular target: T1, p53-Mdm2 interaction (N-terminal domain of Mdm2 protein, amino acids 1-111) (Homo sapiens, UniProt Q00987); assay: Fluorescence polarization (FP) binding assay of p53-Mdm2 interaction; conditions: FP assay, 130 nM Mdm2, FAM-labelled p53 peptide; Ki transformed from IC50 using Kenakin equation
# T1 construct: N-terminal domain of Mdm2 protein (amino acids 1-111)
# Description: The inhibition of p53-Mdm2 interaction was measured using a fluorescence polarization (FP) binding assay. FP measures the rotational movement of molecules in a homogenous suspension. For this assay, N-terminal domain of Mdm2 protein (amino acids 1-111) is combined with a fluorescein-labelled (FAM) peptide derived from p53 trans-activation domain. Upon excitation of the fluorescent ligand with linearly polarized light, […]. If the peptide is bound by Mdm2, rotation will slow down and the perpendicular component will decrease. Disruption of the formation of the peptide-Mdm2 complex due to an inhibitor molecule binding to the p53 binding site of Mdm2 results in faster rotation of the peptide.
# Fluorescence polarization experiments were read on Tecan Infinite M1000 reader with the 470 nm excitation and 520 nm emission filters for fluorescein. The fluorescence polarization was measured in black 96-well plates (Corning, CLS3991) in room temperature. Purity of Mdm2 was controlled at >95%. Reaction buffer was optimized by adding 5 mM DTT and 0.1% zwitterionic detergent CHAPS to reduce effect of nonspecific interactions.
# The test was performed by combining successive dilution of compounds diluted in dimethyl sulfoxide (DMSO, 5% final concentration) with 130 nM Mdm2 in reaction buffer (PBS, 0.1% CHAPS, 5 mM DTT (dithiothreitol)). After 15 minutes of incubation in room temperature […] FAM-labelled peptide was added. Final reading was performed after 90 minutes of incubation. Dose-dependent binding curves and IC50 values were calculated using GraphPad Prism5 and next transformed to Ki values using Kenakin equation.
# T1 sequence (Q00987 1-111): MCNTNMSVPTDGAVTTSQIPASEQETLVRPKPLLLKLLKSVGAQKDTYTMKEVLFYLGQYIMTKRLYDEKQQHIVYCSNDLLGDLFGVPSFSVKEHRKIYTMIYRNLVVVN
SMILES,IC50 [1] [µM],Ki [2] [nM]
"COc1ccccc1-n1cc2c(c1C(C)C)C1(C(=O)Nc3cc(Cl)ccc31)N(c1cc(Cl)ccc1C(N)=O)C2=O (stereo not drawn) [Compound 99, 4-chloro-2-[6-chloro-5′-(2-methoxy-phenyl)-2,3′-dioxo-6′-(propan-2-yl)-1,2,3′,5′-tetrahydro-2′H-spiro[indole-3,1′-pyrrolo[3,4-c]pyrrole]-2′-yl]benzamide]",0.65,6.7
"NC(=O)CSC1=C(c2ccccc2)C2(C(=O)Nc3cc(Cl)ccc32)N(c2cccc(Cl)c2)C1=O (stereo not drawn) [Compound 53, 2-[6-chloro-1′-(3-chlorophenyl)-2,5′-dioxo-3′-phenyl-1,1′,2,5′-tetrahydrospiro [indole-3,2′-pyrrole]-4′-ylsulfanyl] acetamide]",29.6,581
"COc1ccccc1-n1nc2c(c1C(C)C)[C@@]1(C(=O)Nc3cc(Cl)ccc31)N(c1cc(Cl)ccc1C)C2=O [Compound 65, (3S)-6-chloro-5′-(5-chloro-2-methyl-phenyl)-2′-(2-methoxyphenyl)-3′-(propan-2-yl)-1,2,5′,6′-tetrahydro-2′H-spiro[indole-3,4′-pyrrolo[3,4-c]pyrazole]-2,6′-dione]",0.22,1.9
"COC(=O)c1ccc(OC)c(-n2nc3c(c2C(C)C)C2(C(=O)Nc4cc(Cl)ccc42)N(c2cc(Cl)ccc2C)C3=O)c1 (stereo not drawn) [Compound 78, methyl 3-[6-chloro-5′-(5-chloro-2-methylphenyl)-2,6′-dioxo-3′-(propan-2-yl)-1,2,5′,6′-tetrahydro-2′H-spiro[indole-3,4′-pyrrolo[3,4-c]pyrazol]-2′-yl]-4-methoxybenzoate]",0.36,3.4
"COc1ccc(-n2cc3c(c2C(C)C)[C@@]2(C(=O)Nc4cc(Cl)ccc42)N(c2cc(Cl)cnc2C)C3=O)c(OC)c1 [Compound 111, (3S)-6-chloro-2′-(5-chloro-2-methyl-pyridin-3-yl)-5′-(2,4-dimethoxyphenyl)-6′-(propan-2-yl)-1,2,3′,5′-tetrahydro-2′H-spiro[indole-3,1′-pyrrolo[3,4-c]pyrrole]-2,3′-dione]",0.12,2.8
"COc1ccc(CSC2=C(O)C(=O)N(c3cccc(Cl)c3)C23C(=O)Nc2cc(Cl)ccc23)cc1 (stereo not drawn) [Compound 59, 6-chloro-1′-(3-chlorophenyl)-4′-hydroxy-3′-{[(4-methoxyphenyl)methyl]sulfanyl}-1,1′,2,5′-tetrahydrospiro[indole-3,2′-pyrrole]-2,5′-dione]",37.5,178
"CC1(c2[nH]nc3c2C2(C(=O)Nc4cc(Cl)ccc42)N(c2cccc(Cl)c2)C3=O)CC1 (stereo not drawn) [Compound 19, 6-chloro-5′-(3-chlorophenyl)-3′-(1-methylcyclopropyl)-1,2,5′,6′-tetrahydro-2′H-spiro[indole-3,4′-pyrrolo[3,4-c]pyrazole]-2,6′-dione]",22.3,64
"O=C1C(O)=C(c2ccccc2)C2(C(=O)Nc3cc(Cl)c(Cl)cc32)N1c1cccc(Cl)c1 (stereo not drawn) [Compound 43, 5,6-dichloro-1′-(3-chlorophenyl)-4′-hydroxy-3′-phenyl-1,1′,2,5′-tetrahydrospiro [indole-3,2′-pyrrole]-2,5′-dione]",43.8,650
"COc1ccc(Cl)cc1N1C(=O)C(O)=C(c2ccccc2)C12C(=O)Nc1cc(Cl)ccc12 (stereo not drawn) [Compound 46, 6-chloro-1′-(5-chloro-2-methoxyphenyl)-4′-hydroxy-3′-phenyl-1,1′,2,5′-tetrahydrospiro[indole-3,2′-pyrrole]-2,5′-dione]",32.3,96
"O=C1C(O)=C(c2ccccc2)C2(C(=O)Nc3cc(Cl)ccc32)N1c1cccc(Cl)c1 (stereo not drawn) [Compound 41, 6-chloro-1′-(3-chlorophenyl)-4′-hydroxy-3′-phenyl-1,1′,2,5′-tetrahydrospiro[indole-3,2′-pyrrole]-2,5′-dione]",21.4,24
"COc1ccc(C(N)=O)cc1-n1cc2c(c1C(C)C)[C@@]1(C(=O)Nc3cc(Cl)ccc31)N(c1cc(Cl)ccc1C)C2=O [Compound 110, 3-[(3S)-6-chloro-2′-(5-chloro-2-methylphenyl)-2,3′-dioxo-6′-(propan-2-yl)-1,2,3′,5′-tetrahydro-2′H-spiro[indole-3,1′-pyrrolo[3,4-c]pyrrole]-5′-yl]-4-methoxybenzamide]",0.35,1.7
"O=C1C(O)=C(C2CCCCC2)C2(C(=O)Nc3cc(Cl)ccc32)N1c1cccc(Cl)c1 (stereo not drawn) [Compound 44, 6-chloro-1′-(3-chlorophenyl)-3′-cyclohexyl-4′-hydroxy-1,1′,2,5′-tetrahydrospiro[indole-3,2′-pyrrole]-2,5′-dione]",18.1,281
"COc1ccc(-n2cc3c(c2C(C)C)C2(C(=O)Nc4cc(Cl)ccc42)N(c2cc(Cl)cnc2C)C3=O)c(OC)c1 (stereo not drawn) [Compound 104, 6-chloro-2′-(5-chloro-2-methylpyridin-3-yl)-5′-(2,4-dimethoxyphenyl)-6′-(propan-2-yl)-1,2,3′,5′-tetrahydro-2′H-spiro[indole-3,1′-pyrrolo[3,4-c]pyrrole]-2,3′-dione]",0.16,3.1
"COc1ccccc1-n1nc2c(c1C(C)C)C1(C(=O)Nc3cc(Cl)ccc31)N(c1cncc(Cl)c1)C2=O (stereo not drawn) [Compound 72, 6-chloro-5′-(5-chloropyridin-3-yl)-2′-(2-methoxyphenyl)-3′-(propan-2-yl)-1,2,5′,6′-tetrahydro-2′H-spiro[indole-3,4′-pyrrolo [3,4-c]pyrazole]-2,6′-dione]",0.89,5.6
"CCc1ccccc1-n1nc2c(c1CC)C1(C(=O)Nc3cc(Cl)ccc31)N(c1cc(Cl)ccc1C)C2=O (stereo not drawn) [Compound 85, 6-chloro-5′-(5-chloro-2-methylphenyl)-3′-ethyl-2′-(2-ethylphenyl)-1,2,5′,6′-tetrahydro-2′H-spiro[indole-3,4′-pyrrolo [3,4-c]pyrazole]-2,6′-dione]",13,86
"COc1ccc(Cl)cc1N1C(=O)c2n[nH]c(C(C)(C)C)c2C12C(=O)Nc1cc(Cl)ccc12 (stereo not drawn) [Compound 21, 3′-tert-butyl-6-chloro-5′-(5-chloro-2-methoxyphenyl)-1,2,5′,6′-tetrahydro-2′H-spiro[indole-3,4′-pyrrolo[3,4-c]pyrazole]-2,6′-dione]",15.1,70
"COc1ccc(N)cc1-n1cc2c(c1C(C)C)[C@@]1(C(=O)Nc3cc(Cl)ccc31)N(c1cc(Cl)ccc1C)C2=O [Compound 109, (3S)-5′-(5-amino-2-methoxyphenyl)-6-chloro-2′-(5-chloro-2-methylphenyl)-6′-(propan-2-yl)-1,2,3′,5′-tetrahydro-2′H-spiro[indole-3,1′-pyrrolo[3,4-c]pyrrole]-2,3′-dione]",0.07,1.3
"COc1ccccc1-n1cc2c(c1C(C)C)[C@@]1(C(=O)Nc3cc(Cl)ccc31)N(c1cc(Cl)ccc1NS(C)(=O)=O)C2=O [Compound 102, N-{4-chloro-2-[(3S)-6-chloro-5′-(2-methoxy-phenyl)-2,3′-dioxo-6′-(propan-2-yl)-1,2,3′,5′-tetrahydro-2′H-spiro[indole-3,1′-pyrrolo[3,4-c]pyrrole]-2′-yl]phenyl} methanesulfonamide]",0.66,2.9
